Consider 12 compounds from patent US20250197403A1, “HETEROARYL COMPOUNDS FOR TREATMENT OF COMPLEMENT FACTOR D MEDIATED DISORDERS” (Achillion Pharmaceuticals, Inc., priority 2020, published 2025).

Molecules are shown by their SMILES. A value given as a limit tells only on which side of the number the result lay.

This assay deals with Human Factor D (Homo sapiens (Human), UniProt P00746). In words: Human Factor D Assay. The format is biochemical. Conditions: Human Factor D 80 nM, substrate Z-L-Lys-SBzl, assay according to Example 3. Summed up: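 Serum-purified factor D (80 nM final) preincubated with compound 5 min at room temperature in 50 mM Tris, 1M NaCl, pH 7.5. Z-L-Lys-SBzl substrate and DTNB added at 100 μM each; A405 read every 30 s for 30 min. IC50 from nonlinear regression of reaction rates versus compound concentration.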
Sequence of Human Factor D (P00746 26-253): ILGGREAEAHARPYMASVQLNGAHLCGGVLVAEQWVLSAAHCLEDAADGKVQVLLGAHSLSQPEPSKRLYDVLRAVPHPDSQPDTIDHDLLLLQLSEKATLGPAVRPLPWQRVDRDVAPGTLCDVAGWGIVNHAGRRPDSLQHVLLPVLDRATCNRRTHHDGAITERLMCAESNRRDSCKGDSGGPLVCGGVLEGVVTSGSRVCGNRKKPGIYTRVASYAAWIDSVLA
One may read the IC50 as the concentration at which inhibition is half-maximal. On to `CC(=O)c1cn(CC(=O)N2[C@H](C(=O)Nc3nc(Br)ccc3C)C[C@@]3(C)C[C@@H]23)c2ccc(NC3(C)COC3)cc12` [Compound 26, (1R,3S,5R)-2-(2-(3-acetyl-5-((3-methyloxetan-3-yl)-amino)-1H-indol-1-yl)-acetyl)-N-(6-bromo-3-methylpyridin-2-yl)-5-methyl-2-azabicyclo[3.1.0] hexane-3-carboxamide], for which the IC50 is below 1000 nM.
`CC(=O)c1cn(CC(=O)N2C[C@H]3C[C@H]3[C@H]2C(=O)N[C@H](C)C(F)=C(C)C)c2c(C)cc(-c3cnc4cc(C)nn4c3)cc12` [Compound 35, (1R,2S,5S)-3-(2-(3-acetyl-7-methyl-5-(2-methylpyr-azolo[1,5-a]pyrimidin-6-yl)-1H-indol-1-yl)acetyl)-N-((R)-3-fluoro-4-methyl-pent-3-en-2-yl)-3-azabi-cyclo[3.1.0]hexane-2-car-boxamide] showed an IC50 below 1000 nM.
With `CC(=O)c1cn(CC(=O)N2[C@H](C(=O)Nc3nc(C(F)(F)F)c(F)cc3C)C[C@@]3(C)C[C@@H]23)c2c(C)cc(-c3cnc4cc(C)nn4c3)cc12` [Compound 16, (1R,3S,5R)-2-(2-(3-acetyl-7-methyl-5-(2-methylpyr-azolo[1,5-a]pyrimidin-6-yl)-1H-indol-1-yl)acetyl)-N-(5-fluoro-3-methyl-6-(trifluoromethyl)pyridin-2-yl)-5-methyl-2-azabicyclo [3.1.0]hexane-3-carbox-amide], the IC50 is below 1000 nM.
On to `CC(=O)c1cn(CC(=O)N2[C@H](C(=O)Nc3nc(C(F)(F)F)ccc3C#N)C[C@@]3(C)C[C@@H]23)c2c(C)cc(-c3cnc4cc(C)nn4c3)cc12` [Compound 14, (1R,3S,5R)-2-(2-(3-acetyl-7-methyl-5-(2-methylpyr-azolo[1,5-a]pyrimidin-6-yl)-1H-indol-1-yl)acetyl)-N-(3-cyano-6-(trifluoro-methyl)pyridin-2-yl)-5-methyl-2-azabicyclo[3.1.0] hexane-3-carboxamide], for which the IC50 is below 1000 nM.
The same measure for `CC(=O)c1cn(CC(=O)N2[C@H](C(=O)Nc3nc(C(F)(F)F)cc(F)c3C)C[C@@]3(C)C[C@@H]23)c2c(C)cc(-c3ccc4nc(C)nn4c3)cc12` [Compound 58, (1R,3S,5R)-2-(2-(3-acetyl-7-methyl-5-(2-methyl-[1,2,4]triazolo[1,5-a]pyr-idin-6-yl)-1H-indol-1-yl)-acetyl)-N-(4-fluoro-3-methyl-6-(trifluorometh-yl)pyridin-2-yl)-5-methyl-2-azabicyclo[3.1.0]hexane-3-carboxamide]: below 1000 nM; for `CC(=O)c1cn(CC(=O)N2[C@H](C(=O)Nc3nc(C(F)(F)F)ccc3C)C[C@@]3(C)C[C@@H]23)c2c(C)cc(-c3ccc4nc(C#N)nn4c3)cc12` [Compound 22, (1R,3S,5R)-2-(2-(3-acetyl-5-(2-cyano-[1,2,4]triazolo [1,5-a]pyridin-6-yl)-7-methyl-1H-indol-1-yl)acet-yl)-5-methyl-N-(3-methyl-6-(trifluoromethyl)pyridin-2-yl)-2-azabicyclo[3.1.0] hexane-3-carboxamide]: below 1000 nM.
With `CC(=O)c1cn(CC(=O)N2[C@H](C(=O)N[C@@H](C)C(F)=C(C)C)C[C@@]3(C)C[C@@H]23)c2c(C)nc(-c3cnc4cc(C)nn4c3)cc12` [Compound 32, (1R,3S,5R)-2-(2-(3-acetyl-7-methyl-5-(2-methylpyr-azolo[1,5-a]pyrimidin-6-yl)-1H-pyrrolo[2,3-c]pyr-idin-1-yl)acetyl)-N-((S)-3-fluoro-4-methylpent-3-en-2-yl)-5-methyl-2-azabi-cyclo[3.1.0]hexane-3-car-boxamide] the figure was below 1000 nM; with `CC(=O)c1cn(CC(=O)N2C[C@@](F)(CF)CC2C(=O)Nc2nc(C(F)(F)F)ccc2C#N)c2c(C)nc(-c3cnc4cc(C)nn4c3)cc12` (stereo partly drawn) [Compound 33, (4R)-1-(2-(3-acetyl-7-methyl-5-(2-methylpyr-azolo[1,5-a]pyrimidin-6-yl)-1H-pyrrolo[2,3-c]pyr-idin-1-yl)acetyl)-N-(3-cyano-6-(trifluoromethyl)-pyridin-2-yl)-4-fluoro-4-(fluoromethyl)pyrrolidine-2-carboxamide], below 1000 nM; with `COCc1ccc(C(F)(F)F)nc1NC(=O)[C@@H]1C[C@@]2(C)C[C@H]2N1C(=O)Cn1cc(C(C)=O)c2cc(-c3cnc(C)nc3)nc(C)c21` [Compound 41, (1R,3S,5R)-2-(2-(3-acetyl-7-methyl-5-(2-methylpyr-imidin-5-yl)-1H-pyrrolo [2,3-c]pyridin-1-yl)acetyl)-N-(3-(methoxymethyl)-6-(trifluoromethyl)pyridin-2-yl)-5-methyl-2-azabicyclo [3.1.0]hexane-3-carbox-amide], below 1000 nM.
In turn, `CC(=O)c1cn(CC(=O)N2[C@H](C(=O)Nc3nc(C(F)(F)F)ccc3C)C[C@@]3(C)C[C@@H]23)c2c(CO)cc(-c3cnc4cc(C)nn4c3)cc12` [Compound 43, (1R,3S,5R)-2-(2-(3-acetyl-7-(hydroxymethyl)-5-(2-methylpyrazolo[1,5-a]pyr-imidin-6-yl)-1H-indol-1-yl)acetyl)-5-methyl-N-(3-methyl-6-(trifluorometh-yl)pyridin-2-yl)-2-azabi-cyclo[3.1.0]hexane-3-car-boxamide] registered an IC50 below 1000 nM.
For the compound `CC(=O)c1cn(CC(=O)N2[C@H](C(=O)Nc3nc(C(F)(F)F)cc(F)c3C)C[C@@]3(C)C[C@@H]23)c2c(C)cc(-c3cnc4cc(C)nn4c3)cc12` [Compound 12, (1R,3S,5R)-2-(2-(3-acetyl-7-methyl-5-(2-methylpyr-azolo[1,5-a]pyrimidin-6-yl)-1H-indol-1-yl)acetyl)-N-(4-fluoro-3-methyl-6-(trifluoromethyl)pyridin-2-yl)-5-methyl-2-azabicyclo [3.1.0]hexane-3-carbox-amide], the IC50 is below 1000 nM.
In turn, `CC(=O)c1nn(CC(=O)N2[C@H](C(=O)Nc3nc(Br)c(F)cc3C)C[C@@]3(C)C[C@@H]23)c2c(C)cc(-c3cnc([C@@H](C)O)nc3)cc12` [Compound 18, (1R,3S,5R)-2-(2-(3-acetyl-5-(2-((R)-1-hydroxyethyl)-pyrimidin-5-yl)-7-methyl-1H-indazol-1-yl)acetyl)-N-(6-bromo-5-fluoro-3-meth-ylpyridin-2-yl)-5-methyl-2-azabicyclo[3.1.0]hexane-3-carboxamide] came in with an IC50 below 1000 nM.
